The text below walks through data of patent US8742115B2, “Co-crystals and salts of CCR3-inhibitors” (Boehringer Ingelheim International GmbH, priority 2010, dated 2014).

Chain of human chemokine receptor CCR3 (P51677 whole entry): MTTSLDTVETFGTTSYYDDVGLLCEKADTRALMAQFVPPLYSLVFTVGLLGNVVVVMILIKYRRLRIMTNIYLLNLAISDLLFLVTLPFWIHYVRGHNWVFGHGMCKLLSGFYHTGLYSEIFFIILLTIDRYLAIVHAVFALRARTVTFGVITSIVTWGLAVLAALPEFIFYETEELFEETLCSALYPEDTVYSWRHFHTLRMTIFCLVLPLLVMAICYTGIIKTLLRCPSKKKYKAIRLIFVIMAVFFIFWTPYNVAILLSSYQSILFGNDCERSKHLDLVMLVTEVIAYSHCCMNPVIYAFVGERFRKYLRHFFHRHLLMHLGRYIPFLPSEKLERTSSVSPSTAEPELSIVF

The target of the experiment is human chemokine receptor CCR3 (Homo sapiens (Human), UniProt P51677). Briefly: CCR3 receptor binding assay (SPA, 125I-eotaxin-1). Particulars: human Eotaxin-1 at human CCR3-Rezeptor; membranes of hCCR3-C1 (transfected K562) cells. The method, then:
The CCR3 receptor binding test is based on a K562 cell line (leukemia myelogenic blast cells) transfected with the human chemokine receptor CCR3 (hCCR3-C1 cells). The cell membranes were prepared by disrupting the hCCR3-C1 cells by […]. The preparation was centrifuged at 400 g 4° C. for 30 min. The supernatant was transferred into fresh tubes followed by a second centrifugation at 48000 g, 4° C. for 1 h. The membranes were re-suspended in the SPA incubation buffer (25 mM HEPES, 25 mM MgCl2 6×H2O, 1 mM CaCl2 2×H2O) without bovine serum albumin and homogenized by passing through a single use needle (Terumo, 23Gx1″). The membranes were stored in aliquots at −80° C.
The CCR3 receptor binding assay was performed in a Scintillation Proximity Assay (SPA) design with the radioligand recombinant human ^125Iodine-eotaxin-1. Cell membranes of hCCR3 C1 cells were again homogenized by passing through a single use needle (Terumo, 23Gx1″) and diluted in SPA incubation buffer in suitable concentrations (0.5-10 μg protein/well) in 96 well microtiter plates (1450-514, Perkin Elmer). The SPA assay was set up in the SPA incubation buffer with a final volume of 200 μl and final concentration of 25 mM HEPES, 25 mM MgCl2 6×H2O, 1 mM CaCl2 2×H2O and 0.1% bovine serum albumin. The SPA assay mixture contained 60 μl of the membrane suspension, 80 μl of Wheat Germ Agglutinin coated PVT beads (organic scintillator, GE Healthcare, RPNQ-0001) 0.2 mg/well), 40 μl of recombinant human ^125Jodine-eotaxin-1 (Biotrend), diluted in SPA buffer to a final concentration of 30.000 dpm per well, and 20 μl of the test compound (dissolved in DMSO dilutions). The SPA assay mixture was incubated for 2 h at room temperature. Bound radioactivity was determined with a scintillation counter (Micro Beta “Trilux”, Wallac). Included were controls for total binding (no displacer added, Bo) and non-specific binding (NSB) by adding unlabelled recombinant human Eotaxin-1 (Biotrend, Cat #300-21) or a reference compound.
Determination of the affinity of a test compound was calculated by subtraction of the non-specific binding (NSB) from the total binding (Bo) or the binding in the presence of the test compound (B) at a given compound concentration. The NSB value was set to 100% inhibition. The Bo-NSB value was set to 0% inhibition.
As usually defined, the Ki is the equilibrium dissociation constant of an inhibitor or competing ligand from its target. A low value points to higher affinity. `CNC(=O)c1ccnc(NC(=O)[C@H]2CCC(=O)N2C2CCN(Cc3ccc(Cl)c(C)c3)CC2)c1` [Example 1] came in with a Ki of 23.4 nM.

`Cc1cccc(NC(=O)[C@H]2CCC(=O)N2C2CCN(Cc3ccc(Cl)c(C)c3)CC2)n1` [Example 2] registered a Ki of 69.6 nM.

Regarding `COc1ccnc(NC(=O)[C@H]2CCC(=O)N2C2CCN(Cc3ccc(Cl)c(C)c3)CC2)c1` [Example 3], the Ki is 46.5 nM.

Consider `Cc1ccnc(NC(=O)[C@H]2CCC(=O)N2C2CCN(Cc3ccc(Cl)c(C)c3)CC2)c1` [Example 4], for which the Ki came out at 67.5 nM.

In turn, `CCc1ccnc(NC(=O)[C@H]2CCC(=O)N2C2CCN(Cc3ccc(Cl)c(C)c3)CC2)c1` [Example 5] displayed a Ki of 197 nM. Against the preceding molecule, the Ki is about 2.9-fold higher.

In turn, `CNC(=O)c1cccc(NC(=O)[C@H]2CCC(=O)N2C2CCN(Cc3ccc(Cl)c(C)c3)CC2)n1` [Example 6] returned a Ki of 72 nM.

On to `CNC(=O)c1cc(C)nc(NC(=O)[C@H]2CCC(=O)N2C2CCN(Cc3ccc(Cl)c(C)c3)CC2)c1` [Example 7], for which the inhibitory constant (Ki) stood at 10.4 nM. This Ki lies about 6.9-fold lower than the previous one.

On to `Cc1cc(CN2CCC(N3C(=O)CC[C@@H]3C(=O)Nc3cc(C(=O)N(C)C)ccn3)CC2)ccc1Cl` [Example 8], for which affinity was put at a Ki of 8.5 nM.

Molecule `Cc1cc(C(=O)N2CCCC2)cc(NC(=O)[C@H]2CCC(=O)N2C2CCN(Cc3ccc(Cl)c(C)c3)CC2)n1` [Example 9] displayed a Ki of 0.9 nM.

Regarding `Cc1cc(C(=O)N(C)C)cc(NC(=O)[C@H]2CCC(=O)N2C2CCN(Cc3ccc(Cl)c(C)c3)CC2)n1` [Example 11], affinity was put at a Ki of 3.2 nM. This Ki lies about 3.6-fold higher than the previous one.

In turn, `Cc1cc(CN2CCC(N3C(=O)CC[C@@H]3C(=O)Nc3cc(C(=O)N4CCCC4)ccn3)CC2)ccc1Cl` [Example 12] showed a Ki of 4.7 nM.

On to `Cc1cc(CN2CCC(N3C(=O)CC[C@@H]3C(=O)Nc3cc(C(=O)N4CCOCC4)ccn3)CC2)ccc1Cl` [Example 13], for which the affinity, expressed as Ki, was 19.1 nM.

Consider `Cc1cc(CN2CCC(N3C(=O)CC[C@@H]3C(=O)N(C)c3ccccn3)CC2)ccc1Cl` [Example 14], for which the Ki was 1400 nM.

Molecule `Cc1cc(C(=O)NCC2CC2)cc(NC(=O)[C@H]2CCC(=O)N2C2CCN(Cc3ccc(Cl)c(C)c3)CC2)n1` [Example 15] displayed a Ki of 3.5 nM. Compared with the last molecule, the Ki is about 400-fold lower.

Consider `Cc1cc(C(=O)N2CCC2)cc(NC(=O)[C@H]2CCC(=O)N2C2CCN(Cc3ccc(Cl)c(C)c3)CC2)n1` [Example 16], for which the Ki stood at 6.8 nM.

On to `Cc1cc(C(=O)NCC(C)C)cc(NC(=O)[C@H]2CCC(=O)N2C2CCN(Cc3ccc(Cl)c(C)c3)CC2)n1` [Example 17], for which the Ki was found to be 4.3 nM.

For the molecule `Cc1cc(C(=O)NCC(F)F)cc(NC(=O)[C@H]2CCC(=O)N2C2CCN(Cc3ccc(Cl)c(C)c3)CC2)n1` [Example 18], the affinity, expressed as Ki, was 4.6 nM.

As for `CCC(C)NC(=O)c1cc(C)nc(NC(=O)[C@H]2CCC(=O)N2C2CCN(Cc3ccc(Cl)c(C)c3)CC2)c1` (stereo partly shown) [Example 19], the Ki was found to be 4 nM. The Ki values of the last two molecules are within 1.5-fold of each other.

`CCC(C)N(C)C(=O)c1cc(C)nc(NC(=O)[C@H]2CCC(=O)N2C2CCN(Cc3ccc(Cl)c(C)c3)CC2)c1` (stereo partly shown) [Example 21] showed a Ki of 5.2 nM.

For `Cc1cc(C(=O)N(C)C(C)C)cc(NC(=O)[C@H]2CCC(=O)N2C2CCN(Cc3ccc(Cl)c(C)c3)CC2)n1` [Example 22], the Ki turned out to be 2.3 nM.

`Cc1cc(C(=O)NC2CCC2)cc(NC(=O)[C@H]2CCC(=O)N2C2CCN(Cc3ccc(Cl)c(C)c3)CC2)n1` [Example 23]: the affinity, expressed as Ki, was 4.2 nM.

`Cc1cc(C(=O)N(C)C)cc(NC(=O)[C@H]2CCC(=O)N2C2CCN(Cc3ccc(Br)c(C)c3)CC2)n1` [Example 24] came in with an inhibition constant (Ki) of 5.8 nM.

For the molecule `CCc1cc(C(=O)N(C)C)cc(NC(=O)[C@H]2CCC(=O)N2C2CCN(Cc3ccc(Cl)c(C)c3)CC2)n1` [Example 25], the affinity, expressed as Ki, was 8.3 nM. This Ki and that of the molecule before are within 1.5-fold of each other.

For `COc1cc(C(=O)N(C)C)cc(NC(=O)[C@H]2CCC(=O)N2C2CCN(Cc3ccc(Cl)c(C)c3)CC2)n1` [Example 26], the Ki is 232 nM.

`CCCCc1cc(C(=O)N(C)C)cc(NC(=O)[C@H]2CCC(=O)N2C2CCN(Cc3ccc(Cl)c(C)c3)CC2)n1` [Example 27] came in with a Ki of 414 nM.

`Cc1cc(C(=O)N(C)C)cc(NC(=O)[C@H]2CCC(=O)N2C2CCN(Cc3ccc(Cl)c(Cl)c3)CC2)n1` [Example 28] showed a Ki of 17.8 nM.

`Cc1cc(CN2CCC(N3C(=O)CC[C@@H]3C(=O)Nc3cc(C(=O)N(C)C)cc(C(C)C)n3)CC2)ccc1Cl` [Example 29] gave a Ki of 4.1 nM.

In turn, `Cc1cc(C(=O)N(C)C)cc(NC(=O)[C@H]2CCC(=O)N2C2CCN(Cc3ccc(F)c(C)c3)CC2)n1` [Example 30] gave a Ki of 70.3 nM.

With `Cc1cc(C(=O)N(C)C)cc(NC(=O)[C@H]2CCC(=O)N2C2CCN(Cc3ccc(Cl)c(C(F)(F)F)c3)CC2)n1` [Example 31], the affinity corresponds to a Ki of 87.2 nM.

Take `Cc1cc(CN2CCC(N3C(=O)CC[C@@H]3C(=O)Nc3cc(C(=O)N(C)C)cc(C4CC4)n3)CC2)ccc1Cl` [Example 32]: the Ki is 2.3 nM.

Molecule `CCc1cc(CN2CCC(N3C(=O)CC[C@@H]3C(=O)Nc3cc(C(=O)N(C)C)cc(C)n3)CC2)ccc1Cl` [Example 33] returned a Ki of 7.9 nM.

Molecule `C#Cc1cc(C(=O)N(C)C)cc(NC(=O)[C@H]2CCC(=O)N2C2CCN(Cc3ccc(Cl)c(C)c3)CC2)n1` [Example 34] showed a Ki of 7.9 nM.

As for `Cc1cc(C(=O)N(C)C)cc(NC(=O)[C@H]2CCC(=O)N2C2CCN(Cc3cc(C)c(Cl)c(C)c3)CC2)n1` [Example 35], the Ki was 61.3 nM.

`CCN(C)C(=O)c1cc(C)nc(NC(=O)[C@H]2CCC(=O)N2C2CCN(Cc3ccc(Cl)c(C)c3)CC2)c1` [Example 36] gave a Ki of 1.7 nM.
